Laboratory results from patent US11590163B2, “Iron-fortified food composition” (SOCIETE DES PRODUITS NESTLE S.A., priority 2017, dated 2023).

Legend:
[1] = Human stable-isotope iron bioavailability study (erythrocyte incorporation); format: in vivo; conditions: healthy adult women
Description: Clinical trials were performed on fortified chicken bouillon and fortified chicken bouillon with corn flour to simulate inhibitory conditions. The trial was performed by ETH Zurich (Switzerland). The study was a controlled, single blind, single centre, and randomized cross-over trial in 22 healthy adult women, with each woman serving as their own control. Each participant consumed 6 different types of investigational products: bouillon respectively bouillon with maize porridge fortified either with PA:^58Fe:HCP, ^54FeSO4, (Ref1-labelled) or ^57FePP (Ref2-labelled). The PA:^58Fe:HCP complex was prepared as Example 1 sample 9 apart from the use of ^58Fe. The order of test meal administration was randomly assigned. […]
Fractional iron absorption (FIA) was calculated based on the measured shift of iron isotope ratios in the blood 14 days after the test meal administrations, from the blood samples collected on days 1, 17 and 35. […] The amounts of ^54Fe, ^57Fe and ^58Fe in the blood were calculated on the principle of isotope dilution by considering that iron isotopic labels are not mono-isotopic. Circulating iron was calculated based on blood volume and hemoglobin concentration. Blood volume was indirectly measured based on height and weight and calculated using the formula proposed by Brown et al [E. Brown et al., The Journal of clinical investigation, 41:21, 82-90.(1962)]. […]

[2] = Colour change in iron-fortified bouillon (CIELAB ΔEab*); format: physicochemical; conditions: chicken bouillon containing curcumin, approx. 5.5 mg iron per 6.55 g powder, reconstituted in 250 mL boiling water, 60° C. min. 30 minutes; vs bouillon with no iron
Description: Commercial Maggi Chicken Bouillon (Nestle Nigeria) containing curcumin was iron fortified by the addition of iron (III) complexes from Example 1, as well as ferrous sulphate (Dr. P. Lohmann GmbH KG) Ref1, and […] (Dr. P. Lohmann GmbH KG) Ref2. The amounts were chosen to provide approximately 5.5 mg of iron per 6.55 g of bouillon powder. A further sample without iron fortification was also prepared in the same manner. All samples were reconstituted in 250 mL of boiling water and kept at 60° C. for a minimum of 30 minutes.
Colour measurements were performed in 2.6×1 cm quartz cuvettes using an XRite ColorEye 7000A colorimeter. The colorimeter was set up with a D65 light source, 10 degree observer angle, specular component included and Large area View (LAV). The colour difference between the beverage with no iron salt and the iron-fortified beverages was measured for each material and expressed as ΔEab* using the CIELAB colour scale (Table 2).

Row | Compound | fractional iron absorption ([1]; in bouillon plus maize meal rich in phytate) | fractional iron absorption ([1]; in bouillon) | Δ E [2]
1 | O=S(=O)([O-])[O-].[54Fe+2] [^54FeSO4] | 3.6% | 24.6% | –
2 | O=S(=O)([O-])[O-].[Fe+2] [Ref1, ferrous sulphate] | – | – | 15.2
